Results taken from PubChem BioAssay AID488867 (Broad Institute, 2010).
Calls of active or inactive are those of the source.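 The calls were made as follows: active = a rising curve with AC50 no higher than ten times the top valid dose of that compound; inconclusive = flat curve between 30 and 70 percent, or failed fit; inactive = the rest.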

Assay: INS-1E mitochondrial potential loss inhibitors – cell-based, JC-1 fluorescence, dry powder, set 2, dose response (AID 488867)
Settings: INS-1E cytokine-induced apoptosis, JC-1 mitochondrial potential, 48 h

SMILES | protection from cytokine-induced depolarization (at 26 µM (top of the series)) | also measured
COc1ccc(S(=O)(=O)N(C)C[C@@H]2Oc3c(NC(=O)Nc4c(C)noc4C)cccc3C(=O)N([C@@H](C)CO)C[C@H]2C)cc1 | 2.03% (inactive) | –
C[C@H]1CN([C@@H](C)CO)C(=O)c2cccc(NC(=O)NC3CCCCC3)c2O[C@@H]1CN(C)S(C)(=O)=O | -1.29% (inactive) | –
Cc1noc(C)c1NC(=O)N(C)C[C@@H]1Oc2c(NC(=O)Nc3cccc4ccccc34)cccc2C(=O)N([C@@H](C)CO)C[C@H]1C | 12.1% (inactive) | –
C[C@@H]1CN([C@@H](C)CO)C(=O)c2cccc(NC(=O)Nc3cccc4ccccc34)c2O[C@H]1CN(C)S(=O)(=O)c1cn(C)cn1 | 6.5% (inactive) | –
COc1ccc(S(=O)(=O)N(C)C[C@@H]2Oc3c(NC(=O)Nc4cccc5ccccc45)cccc3C(=O)N([C@@H](C)CO)C[C@@H]2C)cc1 | -0.543% (inactive) | –
C[C@@H]1CN([C@@H](C)CO)C(=O)c2cccc(NC(=O)Nc3cccc4ccccc34)c2O[C@H]1CN(C)CC1CC1 | 10.5% (inactive) | –
COc1ccc(S(=O)(=O)N(C)C[C@@H]2Oc3c(NC(=O)C4CCCCC4)cccc3C(=O)N([C@@H](C)CO)C[C@H]2C)cc1 | 2.77% (inactive) | –
COc1ccc(S(=O)(=O)N(C)C[C@@H]2Oc3ccc(NC(=O)Nc4cccc5ccccc45)cc3C(=O)N([C@@H](C)CO)C[C@H]2C)cc1 | -12% (inactive) | –
COc1ccc(S(=O)(=O)N(C)C[C@@H]2Oc3c(NS(=O)(=O)c4ccc(Cl)cc4)cccc3C(=O)N([C@@H](C)CO)C[C@H]2C)cc1 | -6.3% (inactive) | –
COc1ccc(S(=O)(=O)N(C)C[C@@H]2Oc3c(NC(=O)Nc4cccc5ccccc45)cccc3C(=O)N([C@@H](C)CO)C[C@H]2C)cc1C | -8.34% (inactive) | –
C[C@@H]1CN([C@H](C)CO)C(=O)c2cccc(NC(=O)Nc3cccc4ccccc34)c2O[C@H]1CN(C)S(=O)(=O)c1ccc(Cl)cc1 | 4.01% (inactive) | –
C[C@@H]1CN([C@@H](C)CO)C(=O)c2cccc(NC(=O)Nc3cccc4ccccc34)c2O[C@H]1CN(C)S(=O)(=O)c1ccc(F)cc1 | 4.49% (inactive) | –
COc1ccc(S(=O)(=O)N(C)C[C@@H]2Oc3c(NC(=O)C4CC4)cccc3C(=O)N([C@@H](C)CO)C[C@H]2C)cc1 | – | protection from cytokine-induced depolarization (at 23.5 µM (top of the series)): -7.4% (inactive)
C[C@@H]1CN([C@@H](C)CO)C(=O)c2cccc(NC(=O)Nc3cccc4ccccc34)c2O[C@H]1CN(C)S(=O)(=O)c1ccc2c(c1)oc(=O)n2C | -5.34% (inactive) | –
COc1ccccc1S(=O)(=O)N(C)C[C@@H]1Oc2c(NC(=O)Nc3cccc4ccccc34)cccc2C(=O)N([C@@H](C)CO)C[C@H]1C | -3.43% (inactive) | –
COc1ccc(S(=O)(=O)N(C)C[C@@H]2Oc3c(NC(=O)c4cccc5ccccc45)cccc3C(=O)N([C@@H](C)CO)C[C@H]2C)cc1 | 4.73% (inactive) | –
C[C@@H]1CN([C@@H](C)CO)C(=O)c2cccc(NC(=O)Nc3cccc4ccccc34)c2O[C@H]1CN(C)S(=O)(=O)c1cccs1 | 3.88% (inactive) | –
C[C@@H]1CN([C@@H](C)CO)C(=O)c2cccc(NC(=O)Nc3cccc4ccccc34)c2O[C@H]1CN(C)S(=O)(=O)c1ccc2c(c1)OCO2 | 32.4% (inactive) | –
CNC[C@@H]1Oc2c(NC(=O)Nc3cccc4ccccc34)cccc2C(=O)N([C@@H](C)CO)C[C@H]1C | 9.02% (inactive) | –

SMILES | protection from cytokine-induced depolarization (at 26 µM (top of the series)) | also measured
C[C@@H]1CN([C@H](C)CO)C(=O)c2cccc(NC(=O)Nc3ccccc3)c2O[C@H]1CN(C)S(=O)(=O)c1ccc(Cl)cc1 | 15.6% (inactive) | –
C[C@@H]1CN([C@@H](C)CO)C(=O)c2cccc(NC(=O)Nc3cccc4ccccc34)c2O[C@H]1CN(C)C(=O)Nc1ccc(F)cc1 | 9.03% (inactive) | –
COc1ccc(S(=O)(=O)N(C)C[C@@H]2Oc3c(NC(=O)NC4CCCCC4)cccc3C(=O)N([C@@H](C)CO)C[C@H]2C)cc1 | 7.46% (inactive) | –
C[C@@H]1CN([C@@H](C)CO)C(=O)c2cccc(NC(=O)Nc3cccc4ccccc34)c2O[C@H]1CN(C)S(=O)(=O)c1ccc(OC(F)(F)F)cc1 | -2.77% (inactive) | –
C[C@@H]1CN([C@@H](C)CO)C(=O)c2cccc(NC(=O)Nc3cccc4ccccc34)c2O[C@H]1CN(C)C(=O)Nc1ccc(C(F)(F)F)cc1 | – | protection from cytokine-induced depolarization (at 23.5 µM (top of the series)): 7.29% (inactive)
COc1ccc(S(=O)(=O)N(C)C[C@@H]2Oc3c(NC(=O)Nc4ccc5c(c4)OCO5)cccc3C(=O)N([C@@H](C)CO)C[C@H]2C)cc1 | 4.22% (inactive) | –
COc1ccc(S(=O)(=O)N(C)C[C@@H]2Oc3c(NC(=O)c4ccncc4)cccc3C(=O)N([C@@H](C)CO)C[C@H]2C)cc1 | -1.06% (inactive) | –
COc1ccc(S(=O)(=O)N(C)C[C@@H]2Oc3c(cccc3N(C)C)C(=O)N([C@@H](C)CO)C[C@H]2C)cc1 | – | protection from cytokine-induced depolarization (at 23.5 µM (top of the series)): -4.35% (inactive)
Cc1ccc(S(=O)(=O)N(C)C[C@@H]2Oc3c(NC(=O)Nc4ccc(F)cc4)cccc3C(=O)N([C@@H](C)CO)C[C@H]2C)cc1 | 10.4% (inactive) | –
C[C@@H]1CN([C@@H](C)CO)C(=O)c2cccc(NC(=O)Nc3cccc4ccccc34)c2O[C@H]1CN(C)S(=O)(=O)c1ccccc1 | 8.02% (inactive) | –
COc1ccc(S(=O)(=O)N(C)C[C@@H]2Oc3c(NS(=O)(=O)c4cn(C)cn4)cccc3C(=O)N([C@@H](C)CO)C[C@H]2C)cc1 | -9.04% (inactive) | –
COc1ccc(S(=O)(=O)N(C)C[C@@H]2Oc3c(NC(=O)C4CCOCC4)cccc3C(=O)N([C@@H](C)CO)C[C@H]2C)cc1 | – | protection from cytokine-induced depolarization (at 23.5 µM (top of the series)): 3.35% (inactive)
COc1ccc(S(=O)(=O)N(C)C[C@@H]2Oc3c(NC(=O)Nc4cccc5ccccc45)cccc3C(=O)N([C@@H](C)CO)C[C@H]2C)cc1F | -3.4% (inactive) | –
C[C@@H]1CN([C@@H](C)CO)C(=O)c2cccc(NC(=O)Nc3ccccc3)c2O[C@H]1CN(C)S(=O)(=O)c1ccc(Cl)cc1 | 17.7% (inactive) | –
COc1ccc(S(=O)(=O)N(C)C[C@@H]2Oc3c(NC(=O)c4ccc(-c5nccs5)cc4)cccc3C(=O)N([C@@H](C)CO)C[C@H]2C)cc1 | -3.02% (inactive) | –
COc1ccc(S(=O)(=O)N(C)C[C@H]2Oc3c(NC(=O)Nc4cccc5ccccc45)cccc3C(=O)N([C@H](C)CO)C[C@H]2C)cc1 | -8.55% (inactive) | –
C[C@@H]1CN([C@@H](C)CO)C(=O)c2cccc(NC(=O)Nc3cccc4ccccc34)c2O[C@H]1CN(C)S(=O)(=O)c1cccc(F)c1 | -9.88% (inactive) | –
COc1ccc(S(=O)(=O)Nc2cccc3c2O[C@@H](CN(C)S(=O)(=O)c2ccc(OC)cc2)[C@H](C)CN([C@@H](C)CO)C3=O)cc1 | 3.9% (inactive) | –
C[C@@H]1CN([C@@H](C)CO)C(=O)c2cccc(NC(=O)Nc3cccc4ccccc34)c2O[C@H]1CN(C)S(=O)(=O)c1ccc2c(c1)OCCO2 | 26.8% (inactive) | protection from cytokine-induced depolarization (at 12 µM (top of the series)): 29.7% (inactive)
